Source: patent US6934639B1, “Methods for designing agents that interact with MMP-13” (Wyeth, priority 2000, dated 2005)

Assays:
Type in all cases: biochemical
[1] = target: MMP-13 (Homo sapiens, UniProt P45452); assay: MMP-13 enzyme inhibition (IC50)
[2] = target: MMP-9 (Homo sapiens, UniProt P14780); assay: MMP-9 enzyme inhibition (IC50)
[3] = target: T1, MMP-1 (Homo sapiens, UniProt P03956); assay: MMP-1 enzyme inhibition (IC50)
T1 sequence (P03956 100-469): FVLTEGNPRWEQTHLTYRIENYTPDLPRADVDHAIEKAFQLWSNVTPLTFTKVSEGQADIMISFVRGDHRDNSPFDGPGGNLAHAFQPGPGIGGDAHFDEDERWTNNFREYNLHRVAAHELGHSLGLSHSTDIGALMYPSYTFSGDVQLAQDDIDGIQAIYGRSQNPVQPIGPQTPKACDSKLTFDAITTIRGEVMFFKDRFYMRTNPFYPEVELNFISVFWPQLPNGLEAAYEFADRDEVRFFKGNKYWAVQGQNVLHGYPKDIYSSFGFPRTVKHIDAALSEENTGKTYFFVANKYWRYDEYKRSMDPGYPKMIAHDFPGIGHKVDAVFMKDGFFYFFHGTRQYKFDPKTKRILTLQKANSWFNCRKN

[4] = target: TACE (Homo sapiens, UniProt P78536); assay: TACE enzyme inhibition (IC50)
TACE, sequence (P78536 215-824): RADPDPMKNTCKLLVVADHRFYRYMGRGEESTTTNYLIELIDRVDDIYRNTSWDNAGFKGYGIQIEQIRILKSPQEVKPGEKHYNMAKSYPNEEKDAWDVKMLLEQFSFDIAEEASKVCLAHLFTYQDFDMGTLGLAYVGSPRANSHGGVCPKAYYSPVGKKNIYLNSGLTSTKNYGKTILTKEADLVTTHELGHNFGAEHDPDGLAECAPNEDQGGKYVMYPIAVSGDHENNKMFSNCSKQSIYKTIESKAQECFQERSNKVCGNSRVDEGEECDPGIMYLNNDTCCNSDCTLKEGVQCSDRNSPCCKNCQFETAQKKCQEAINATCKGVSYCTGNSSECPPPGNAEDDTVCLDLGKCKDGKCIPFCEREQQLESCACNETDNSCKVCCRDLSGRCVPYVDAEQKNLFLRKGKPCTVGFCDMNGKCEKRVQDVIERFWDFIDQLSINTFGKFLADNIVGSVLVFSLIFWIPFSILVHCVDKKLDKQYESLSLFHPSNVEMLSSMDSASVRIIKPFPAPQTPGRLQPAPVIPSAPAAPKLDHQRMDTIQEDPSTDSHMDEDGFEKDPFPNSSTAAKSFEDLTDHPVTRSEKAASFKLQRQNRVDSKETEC

MMP-9, sequence (P14780 94-707, species assumed): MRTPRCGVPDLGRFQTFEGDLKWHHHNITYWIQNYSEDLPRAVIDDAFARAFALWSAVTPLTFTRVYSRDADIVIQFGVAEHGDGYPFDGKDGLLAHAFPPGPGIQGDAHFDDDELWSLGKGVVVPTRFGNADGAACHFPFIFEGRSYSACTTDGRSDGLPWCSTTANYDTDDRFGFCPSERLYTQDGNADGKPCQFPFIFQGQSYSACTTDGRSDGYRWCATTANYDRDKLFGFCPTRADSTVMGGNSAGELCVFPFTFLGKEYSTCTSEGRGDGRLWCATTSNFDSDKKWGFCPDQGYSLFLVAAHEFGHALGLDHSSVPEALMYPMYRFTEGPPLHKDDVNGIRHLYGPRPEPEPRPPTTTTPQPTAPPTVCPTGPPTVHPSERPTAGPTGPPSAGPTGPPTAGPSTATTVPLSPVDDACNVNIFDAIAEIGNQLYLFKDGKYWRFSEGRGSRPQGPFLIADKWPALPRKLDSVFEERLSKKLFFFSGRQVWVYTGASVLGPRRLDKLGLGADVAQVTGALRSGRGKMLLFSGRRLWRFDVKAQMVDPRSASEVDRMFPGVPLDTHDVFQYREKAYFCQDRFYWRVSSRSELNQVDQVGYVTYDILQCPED

IC50 [1] | IC50 [2] | IC50 [3] | SMILES | IC50 [4] | also measured
17 nM | 945 nM | – | Cc1cc(C)c(N(Cc2ccccc2)S(=O)(=O)c2ccc(OCCNC(=O)c3cc4ccccc4o3)cc2)c(C(=O)NO)c1 [Compound E, Benzofuran-2-carboxylic acid (2-{4-[benzyl-(2-hydroxycarbamoyl-4,6-dimethyl-phenyl)-sulfamoyl]-phenoxy}-ethyl)-amide] | – | –
301 nM | 71 nM | 1020 nM | Cc1cc(C)c(N(Cc2ccccc2)S(=O)(=O)c2ccc(OCCCc3ccccc3)cc2)c(C(=O)NO)c1 [Compound F] | 664 nM | S-1: selectivity, ratio of MMP-1 IC50 with MMP-13 ([3]; MMP-1 IC50 / MMP-13 IC50): 3.4 x; S-9: selectivity, ratio of MMP-9 IC50 with MMP-13 ([2]; MMP-9 IC50 / MMP-13 IC50): 0.2 x; S-TACE: selectivity, ratio of TACE IC50 with MMP-13 ([4]; TACE IC50 / MMP-13 IC50): 2.2 x

Further lines, the compound ahead of its results:

SMILES | IC50 [1] | IC50 [2] | IC50 [3] | IC50 [4] | also measured
COc1ccc(S(=O)(=O)N(Cc2cccnc2)c2c(C)cccc2C(=O)NO)cc1 [Compound A, N-Hydroxy-2-[(4-methoxy-benzenesulfonyl)-pyridin-3-ylmethyl-amino]-3-methyl-benzamide] | – | – | – | – | potency as inhibitor of MMP-13 [1]: low nanomolar
Cc1cc(C)c(N(Cc2ccccc2)S(=O)(=O)c2ccc(OCCc3ccccc3)cc2)c(C(=O)NO)c1 [Compound C, 2-[Benzyl-(4-phenethyloxy-benzenesulfonyl)-amino]-N-hydroxy-3,5-dimethyl-benzamide] | 75 nM | 46 nM | 750 nM | – | –
COc1ccc(S(=O)(=O)N(Cc2ccccc2)c2c(C)cc(C)cc2C(=O)NO)cc1 [Compound D, 2-[Benzyl-(4-methoxy-benzenesulfonyl)-amino]-N-hydroxy-3,5-dimethyl-benzamide] | – | – | – | 240 nM | –
COc1ccc(S(=O)(=O)N(Cc2cccnc2)[C@@H](C(=O)NO)C(C)C)cc1 [CGS-27023A, reference compound] | – | – | – | – | potency as inhibitor of MMP-1 [3]: low nanomolar
